“And” between values parts separate entries of the source, which are not always exact repeats. Identical values can stand only once.
System: Plasmodium falciparum
Assay: Calibr Malaria Delayed Death Assay SOP
Assay type: functional, organism-based
Details: for IC50: Plasmodium falciparum

Structure (SMILES) | pIC50 | IC50 [nM]
CN(Cc1cc(F)cc2cccnc12)CC1CCN(CCO)CC1 | 6.165 | 835
CC(C)C(CNCc1cccc2c1OCO2)N1CCOCC1 (centres undefined) | 6.558 | 429
CC(O)c1cccc(Nc2nc(NCCO)c3ccccc3n2)c1 (centres undefined) | 6.601 | 220
CN1CCC(N(C)C[C@H]2CC[C@@H](Cc3ccc4occc4c3)O2)CC1 | 6.011 | 993
Cc1ccsc1CN(Cc1cccnc1)C1CC(C)(C)NC(C)(C)C1.O=C(O)CC(O)(CC(=O)O)C(=O)O | 6.511 | 290
Cc1cc(C)c(CNCC(O)c2ccc(F)c(F)c2)c(C)c1.Cl (centres undefined) | 6.932 | 125
CCc1ccc(C2c3nc[nH]c3CCN2Cc2nccn2CC)nc1 (centres undefined) | 6.077 | 819
COc1ccc(N2CCCC3(C2)CN(c2nncs2)CCO3)cc1 (centres undefined) | 6.845 | 173
O=C(NCCc1ccccc1)NCCN1CCC(c2cccs2)CC1 | 6.05 | 855
COc1ccccc1C(C)(C)NCc1ccc(C)o1 | 5.785 | 1220
CN(CCO)C[C@@H]1CN(C2CCN(c3ccccc3Cl)CC2)C[C@@H]1CO | 6.408 | 316
CC(C)Oc1ccc(C(O)CNCc2ccccc2C(F)(F)F)cc1 (centres undefined) | 5.963 | 1150
CC(C)[C@H](CO)Nc1nccc(-c2c[nH]nc2-c2ccncc2)n1 | 5.945 | 1130
CCc1ccc(CN(CCN(C)C)Cc2ccc(C)s2)nc1 | 6.04 | 965
COc1ccc(C(=O)NCCCOC(C)c2ccccc2)c(OC)c1 (centres undefined) | 6.022 | 763
Cc1n[nH]cc1CNC1(c2ccc(F)cc2)CCCC1 | 6.295 | 584
CCN(CC)Cc1ccccc1NC(=O)N(C)Cc1ccccc1O | 6.076 | 765
CN1CC[C@H](N(Cc2ccccc2)Cc2ccccc2)C[C@H](O)C1 | 6.066 | 897
CC(C)(C)C(=O)N1C[C@H](c2ccsc2)[C@H]2CN(C3CCCCC3)CC[C@H]21.Cl | 6.133 | 683
CCC[C@H]1CN(c2nc(CO)cs2)C[C@@H]1NC(=O)C1(COC)CC1 | 5.825 | 1600
CC(C)N(C)Cc1cnc2n1CCN(C(=O)NC1CCCC1)C2.O=C(O)C(F)(F)F | 6.607 | 275
Cc1cc(S(=O)(=O)N2CCC(N3CCC(O)C3)CC2)c(Cl)cc1Cl (centres undefined) | 5.897 | 958

Structure (SMILES) | pIC50 | IC50 [nM]
Cc1ccc(CN2CCCC3(CCN(Cc4ccoc4)CC3)C2)cc1.O=C(O)C(F)(F)F.O=C(O)C(F)(F)F | 6.068 | 1110
Cc1ccc(C(C)NCCc2nccn2Cc2ccccc2)o1 (centres undefined) | 5.88 | 1260
COc1cccc(CN2CC(=O)N(c3ccccc3C)CC2C)c1OC (centres undefined) | 5.928 | 1420
COc1cccc(CN(C)Cc2[nH]c3ccccc3c2C)c1O | 6.46 | 310
Cc1cccc(C)c1Nc1noc2c1CN(C(=O)c1ccnn1C)CC2 | 6.86 | 142
OC[C@@H]1CCCN1c1nccc(-c2c[nH]nc2-c2ccncc2)n1 | 6.195 | 764
CCc1cc(CNCc2ccccc2N(C)C2CCN(C)CC2)on1 | 6.107 | 828
CN(C)c1ccccc1CN1CCCCC1CNS(C)(=O)=O (centres undefined) | 6.043 | 1080
CC(C)N1CCC(NCc2cccnc2N(C)Cc2ccccc2)CC1 | 6.416 | 447
O=C([C@@H]1Cc2[nH]cnc2CN1Cc1cc2ccccc2o1)N1CCCC1 | 5.967 | 1090
Clc1cccc2c3c([nH]c12)CCN(Cc1cc2n(n1)CCCNC2)C3 | 6.194 | 965
Cc1cnccc1CN1CC[C@@](C)(O)[C@H](Oc2cccc(F)c2)C1 | 5.517 | 2330
Cc1ccc(CN(Cc2cccnc2)C2CC(C)(C)NC(C)(C)C2)s1.O=C(O)CC(O)(CC(=O)O)C(=O)O | 6.05 | 727
Cc1ccc(-c2ccccc2CC2(C(=O)NC(C)C)CCCNC2)cc1 (centres undefined) | 6.259 | 491
Cn1cc(CN2CCCC(CCc3ccc(F)cc3F)C2)cn1 (centres undefined) | 5.983 | 992
CC1(C)CN(C(CNC2=NCCN2)c2ccc(Cl)cc2)CCO1.I (centres undefined) | 6.344 | 478
O=C(NCCN1CCCC1)C1(c2ccc(Cl)cc2)CCOCC1 | 6.003 | 714
CCCOc1ccc2ccccc2c1CN1CC[C@@]2(O)CCNC[C@H]2C1 | 6.043 | 924
CCN1CCN(c2ccc(F)cc2C(C)NCc2ccccn2)CC1 (centres undefined) | 6.099 | 651
NC1(C(=O)NCC2CCCN(Cc3ccccc3F)C2)CCCC1 (centres undefined) | 6.224 | 470
CN1CCC(O)(CNCc2ccc(F)c(C(F)(F)F)c2)CC1 | 6.096 | 750
Cc1ccc(CNC(C)c2cc(F)ccc2N2CCN(C)CC2)o1 (centres undefined) | 6.454 | 329

Structure (SMILES) | pIC50 | IC50 [nM]
Cc1cc2c(cc1CN1CCCCC1CCn1ccnc1C)OCO2 (centres undefined) | 6.025 | 1020
CC(C)N1CCC2(CCCN(c3nccc(C(F)(F)F)n3)C2)CC1.O=C(O)C(F)(F)F | 6.114 | 550
Cc1cc(C)cc(CN2C[C@H]3COC[C@H](N4CCN(C)CC4)[C@H]3C2)c1.O=C(O)C(F)(F)F.O=C(O)C(F)(F)F.O=C(O)C(F)(F)F | 6.958 | 197
O=C(NC1CCN(CC2CC2)C1)N1CCC(OC2CCCCC2)CC1 (centres undefined) | 6.591 | 332
Cc1cc(NC(=O)NC2CCN(C(C)C)CC2)c2ncccc2c1 | 5.97 | 796
COCCC1(CNC(=O)Nc2ccnc(C)c2)CCCC1 | 6.054 | 876
CC(O)CN1CCC(CNCc2cccc(Cl)c2)CC1 (centres undefined) | 6.249 | 599
CCN1CCN(c2ccc(F)cc2C(C)NCc2cscn2)CC1 (centres undefined) | 5.999 | 907
Cc1cc(F)ccc1CN1CCC(O)(CN2CCCCC2)C1 (centres undefined) | 6.047 | 1750
CC(N)Cc1ccccc1Sc1ccccc1.O=C(O)/C=C\C(=O)O (centres undefined) | 6.082 | 854
CC(C)CNC(=O)C1(Cc2ccccc2-c2cccs2)CCNC1 (centres undefined) | 6.092 | 626
Cc1cccc(NC(=O)c2cccc(OCc3nnnn3C)c2)n1 | 6.563 | 278
COc1ccc(-c2c(C)nn3c(=N)c(C#N)n[nH]c23)cc1OC | 6.297 | 538
CCNC(=O)N(C)C1CCN(Cc2ncc(C)c(OC)c2C)CC1 | 5.844 | 1590
Oc1cccc2ccc(CN3CCC4(CCNCC4)C3)nc12 | 6.257 | 736
NC(=O)CN1CCC(Nc2ccnc3ccc(Cl)cc23)CC1 | 6.054 | 761
Cn1nc(CN2CCCCC(N)C2)c2c(Cl)cccc21 (centres undefined) | 6.151 | 800
CCN1CCC2(CC1)CC(NCc1cccc(C)n1)c1ccccc1O2.O=C(O)C(F)(F)F.O=C(O)C(F)(F)F.O=C(O)C(F)(F)F (centres undefined) | 6.22 | 780
CC(C)=CCN1CCC2(CC1)c1ccccc1[C@@H](N1CCSCC1)[C@@H]2O | 5.994 | 991
O=C(O)C(F)(F)F.O=C(O)C(F)(F)F.O=C(O)C(F)(F)F.c1cnn(C[C@@H]2C[C@@H]3CN(CC4CC4)CC[C@@H]3N2c2nccs2)c1 | 6.063 | 859
c1ccn2c(C3CCCN(c4ncnc5c4CCNC5)C3)nnc2c1 (centres undefined) | 6.629 | 213
CO[C@H]1CN(C(C)C)C[C@@H]1NC(=O)c1cc(-c2ccccc2O)n[nH]1 | 6.125 | 891

Structure (SMILES) | pIC50 | IC50 [nM]
CCN1CCCC(CNC(=O)C2(c3cc(C)cc(C)c3)CCC2)C1 (centres undefined) | 6.008 | 1510
C[C@@H]1CN(C(=O)C2CCS(=O)(=O)CC2)CC[C@@]1(O)C1CCOCC1 | 6.055 | 998
Cc1ncc(CN(Cc2ccccn2)Cc2ccccc2Cl)n1C.O=C(O)CC(O)(CC(=O)O)C(=O)O | 6.286 | 491
c1ccc(C2CN(C3CC3)CC3(CCN(Cc4ncc[nH]4)CC3)C2)cc1 (centres undefined) | 6.233 and 5.873 | 
Cc1ccc(C2(CN(C)Cc3sccc3C)CCNCC2)nc1 | 6.117 | 515
COc1ccnc(CN2CCCC(CCc3ccccc3)C2)c1OC (centres undefined) | 5.985 | 1030
O[C@H]1[C@H](n2cc(CN3CCCC3)nn2)c2ccccc2C12CCNCC2 | 7.12 | 64.7
CC(C)(NCc1cccc(O)c1)c1ccc2c(c1)OCO2 | 5.935 | 894
CN1CCC2(CCCN(c3nccc(C(F)(F)F)n3)C2)CC1.O=C(O)C(F)(F)F | 6.246 | 771
Fc1ccc(CN2CCC3(CC2)CCN(Cc2nccs2)CC3)cc1.O=C(O)C(F)(F)F.O=C(O)C(F)(F)F | 6.206 | 708
Cc1cc(-n2cccn2)ccc1CN1CCOCC(CN(C)C)C1 (centres undefined) | 6.139 | 673
Cc1ccc(C)c(OCCNC(=O)[C@@H]2CCCCN2)c1 | 6.461 | 362
CN(C)[C@@H]1CCN(c2ncccn2)[C@H]1Cc1ccccc1 | 6.116 | 554
CN(C)[C@@H]1CCN(S(=O)(=O)C2CC2)[C@H]1Cc1ccccc1.O=C(O)C(F)(F)F | 5.682 | 2830
CC(C)CN1CCCC1c1ccc(C(=O)Nc2cccnc2)s1 (centres undefined) | 6.101 | 537
COc1cccc([C@H]2CN(C(C)=O)[C@@H]3CCN(Cc4ccsc4)C[C@H]23)c1.Cl | 5.897 | 1070
Cc1cccc2[nH]c(-c3cn(C4CCNCC4)nn3)nc12 | 6.226 | 597
Cc1cc(CN(C)c2nc(-c3ccccn3)nc3c2CCNCC3)n[nH]1 | 5.981 | 1080
CN(Cc1cc(Cl)cc2cccnc12)CC1CCN(CCO)CC1 | 6.604 | 346

Reference: ChEMBL document CHEMBL3988442, “University of Dundee, Small-Polar-MMV Screening Library” (2021)
